PMC9682871 (Antiviral Research, 2022)

Key:
[1] = test system: pseudovirus presenting the spike of MERS-CoV; test: organism not typed; format: cell-based
MERS-CoV [2] = format: cell-based
HCoV-229E = format: cell-based
HCoV-OC43 = format: cell-based
SARS-CoV = format: cell-based
SARS-CoV-2 [3] = format: cell-based
A549 cells [4] = format: cell-based; settings: 10 μM, 12 h
A549 cells [5] = format: cell-based; settings: 10 μM, 12 h; remark: listed apart in the source
SARS-CoV-2 [6] = settings: hamster, in vivo
MERS-CoV [7] = format: cell-based; remark: listed apart in the source

| SMILES | EC50 ([1]; Huh-7, read-out: Pseudovirus (EC50, μM)) [µM] | inhibition by time of addition (MERS-CoV [2]) | efficacy against HCoV-229E (HCoV-229E) | efficacy against HCoV-OC43 (HCoV-OC43) | potency against SARS-CoV (SARS-CoV) | inhibition of SARS-CoV-2 infection by viral RNA (SARS-CoV-2 [3]) | total cellular cholesterol (A549 cells [4]) | CH25H gene expression (A549 cells [5]) | SQLE expression (A549 cells [5]) | cytotoxic effects in the pseudovirus assay (Huh-7 cells) | activity level or survival rate (SARS-CoV-2 [6]) | MERS-CoV infection assay, immunofluorescence (MERS-CoV [7]) | pseudovirus infection / luciferase signal [1] |
| --- | --- | --- | --- | --- | --- | --- | --- | --- | --- | --- | --- | --- | --- |
| O=C(c1ccc(OCCN2CCCCC2)cc1)c1c(-c2ccc(O)cc2)sc2cc(O)ccc12 [raloxifene] | 0.2 | more potent when added at the earlier stages | effective | effective | strong potency | strong potency | marginal elevation | do not show alteration | significantly enhanced | no significant cytotoxic effects | no significant changes |  |  |
| CCN(CC)CCCC(C)Nc1ccnc2cc(Cl)ccc12 (centres unmarked) [chloroquine] |  | stage-selective activity |  |  |  |  |  |  |  |  |  | quenched in a concentration-dependent manner |  |
| Cc1cccc(C)c1OCC(=O)N[C@@H](Cc1ccccc1)[C@@H](O)C[C@H](Cc1ccccc1)NC(=O)[C@H](C(C)C)N1CCCNC1=O [lopinavir] |  | showed efficacy when added at a relatively later stage of infection |  |  |  |  |  |  |  |  |  | quenched in a concentration-dependent manner |  |
| CCCCc1oc2ccccc2c1C(=O)c1cc(I)c(OCCN(CC)CC)c(I)c1 [amiodarone] |  | strongly inhibited the viral infection when added at an early time point | showed efficacy | showed efficacy | strong potency |  |  |  |  |  |  |  | outstanding antiviral activity |
